How the values were obtained:
Escherichia coli = conditions: cited from earlier work; for antibacterial activity against Escherichia coli: benzaldehyde derivatives, each alone; for antimicrobial activity against Escherichia coli: each compound alone, known
Saccharomyces cerevisiae = conditions: each compound alone; cited from earlier work
[1] = LigDFEG gene cluster, FIG. 2B; cited from earlier work
[2] = in vitro biochemical assay for beta-etherase activity on fluorescent substrate MUAV (clarified E. coli cell extracts); conditions: for total activity (beta-etherase): 0.1 mM MUAV substrate, E. coli cell extracts expressing the protein
From the text: The model substrate synthesis 150 for use in the biochemical screening for selective activity can be outsourced through a contract research organization (CRO). The enzyme discovery effort can initially be focused on identifying potential beta-etherase candidate genes identified through bioinformatic methods. […] The fluorescent substrate α-O-(β-methylumbelliferyl)acetovanillone (MUAV), for example, can be used in in vitro assays to identify beta-etherase function (Acme Biosciences, Mt. View, Calif.). The formation of 4 methylumbelliferone (4MU) upon hydrolysis of the aryl ether bond can be monitored by fluorescence, for example, at λex=365 nm and λem=450 nm (or 460 nm).
The enzyme screening 155 is done to identify novel etherases 160. […] Expression of the beta-etherase genes can be done in 5 ml or 25 ml samples of the recombinant E. coli strains in LB medium using induction with IPTG. Following induction, and cell harvest, cell pellets can be lysed using the BPER (Invitrogen) cell lysis system. […] The formation of 4 methylumbelliferone (4MU) upon hydrolysis of the aryl ether bond in MUAV can be monitored by fluorescence at λex=365 nm and λem=460 nm, and can provide quantitative measurement of beta-etherase function. Cell extracts of E. coli transformed with the S. paucimobilis ligE and ligF genes can be the assay positive controls. Test or unknown samples can include, for example, E. coli strains expressing putative beta-etherase genes from N. aromaticovorans.
This example describes a method for gene expression in E. coli, as well as beta-etherase biochemical assays. Expression of known and putative beta-etherase genes was performed using 5 ml cultures of the recombinant E. coli strains described herein in Luria Broth medium by induction of gene expression using isopropylthiogalactoside (IPTG) to a final concentration of 0.1 mM. Following induction, and cell harvest, the cells were disrupted using either sonication or the BPER (Invitrogen) cell lysis system.
In vitro reactions were performed in a total volume of 200 ul and contained: 25 mM TrisHCl pH 7.5; 0.5 mM dithiothreitol; 1 mM glutathione; 0.05 mM or 0.1 mM MUAV; 10 ul of clarified cell extract used to initiate the reactions. Following incubation for 2.5 hours at room temperature, a 50 ul sample of the reactions was terminated using 150 uL of 300 mM glycine/NaOH buffer pH 9. The formation of 4 methylumbelliferone (4MU) upon hydrolysis of the aryl ether bond was monitored by the increase in fluorescence at λex=360 nm and λem=450 nm using a Spectramax UV/visible/fluorescent spectrophotometer.
The total protein concentrations of the cell lysates were determined using the BCA reagent system for protein quantification (Pierce).
Induction might be also performed using IPTG concentrations in the range of 0.01-1 mM. Cell disruption might be also performed using toluene permeabilization, French pressure techniques, or using multiple freeze/thaw cycles in conjunction with lysozyme. Assay conditions might be varied to include TrisHCl at 10-150 mM concentrations and in the pH range of 6.5-8.5; 0-2 mM dithiothreitol; 0.05-2 mM glutathione; 0.01-5 mM MUAV substrate; 22-42° C. reaction temperatures. The biochemical assay might be performed as a fixed time point assay with reaction times ranging from 5 minutes-12 hours, or performed continuously without quenching with glycine/NaOH buffer to extract enzyme kinetic parameters.

Question: For `O=Cc1ccc(O)c(O)c1O` [2,3,4-trihydroxybenzaldehyde], which “antibacterial activity against Escherichia coli” value (Escherichia coli) is on record?
Answer: Its value is “antibacterial activity”.

Question: Which “antibacterial activity against Escherichia coli” value (Escherichia coli) does the source give for `O=Cc1cccc(O)c1O` [2,3-dihydroxybenzaldehyde] here?
Answer: Its value is “antibacterial activity”.

Question: For `O=Cc1c(O)cc(O)cc1O` [2,4,6-trihydroxybenzaldehyde], which “antibacterial activity against Escherichia coli” value (Escherichia coli) is on record?
Answer: Its value is “antibacterial activity”.

Question: With `O=Cc1ccc(O)cc1O` [2,4-dihydroxybenzaldehyde] as the molecule, how does the “antibacterial activity against Escherichia coli” value (Escherichia coli) read?
Answer: The value was “antibacterial activity”.

Question: With `O=Cc1cc(O)ccc1O` [2,5-dihydroxybenzaldehyde] as the molecule, how does the “antibacterial activity against Escherichia coli” value (Escherichia coli) read?
Answer: The value was “antibacterial activity”.

Question: For `COc1cccc(C=O)c1O` [2-hydroxy-3-methoxybenzaldehyde], which “antibacterial activity against Escherichia coli” value (Escherichia coli) is on record?
Answer: The value was “antibacterial activity”.

Question: With `COc1ccc(O)c(C=O)c1` [2-hydroxy-5-methoxybenzaldehyde] as the molecule, how does the “antibacterial activity against Escherichia coli” value (Escherichia coli) read?
Answer: The value was “antibacterial activity”.

Question: With `O=Cc1ccccc1O` [2-hydroxybenzaldehyde] as the molecule, how does the “antibacterial activity against Escherichia coli” value (Escherichia coli) read?
Answer: Its value is “antibacterial activity”.

Question: With `COc1cc(O)cc(OC)c1C=O` [4-hydroxy-2,6-dimethoxybenzaldehyde] as the molecule, how does the “antibacterial activity against Escherichia coli” value (Escherichia coli) read?
Answer: Its value is “antibacterial activity”.

Question: With `O=Cc1ccc(O)cc1` [4-hydroxybenzaldehyde] as the molecule, how does the “antimicrobial activity against Escherichia coli” value (Escherichia coli) read?
Answer: The value was “antimicrobial activity”.

Question: With `O=Cc1ccc(CO)o1` [5-hydroxymethylfurfural] as the molecule, how does the “antimicrobial activity against Escherichia coli” value (Escherichia coli) read?
Answer: The value was “antimicrobial activity”.

Question: With `COc1ccc(C=O)cc1OC` [Veratraldehyde] as the molecule, how does the “antifungal activity against the yeast Saccharomyces cerevisiae” value (“antifungal activity” below) (Saccharomyces cerevisiae) read?
Answer: The value was “significant antifungal activities”.

Question: Which “antifungal activity” value (Saccharomyces cerevisiae) does the source give for `O=C(O)C=Cc1ccccc1` [cinnamic acid] here?
Answer: Its value is “significant antifungal activities”.

Question: Which “antimicrobial activity against Escherichia coli” value (Escherichia coli) does the source give for `O=Cc1ccco1` [furfural] here?
Answer: Its value is “antimicrobial activity”.

Question: For `O=C(O)/C=C/c1cccc(O)c1` [m-coumaric acid], which “antifungal activity” value (Saccharomyces cerevisiae) is on record?
Answer: The value was “significant antifungal activities”.

Question: With `O=C(O)/C=C/c1ccccc1O` [o-coumaric acid] as the molecule, how does the “antifungal activity” value (Saccharomyces cerevisiae) read?
Answer: Its value is “significant antifungal activities”.

Question: Which “antifungal activity” value (Saccharomyces cerevisiae) does the source give for `O=C(O)/C=C/c1ccc(O)cc1` [p-coumaric acid] here?
Answer: The value was “significant antifungal activities”.

Question: With `COc1cc(C=O)cc(OC)c1O` [syringaldehyde] as the molecule, how does the “antimicrobial activity against Escherichia coli” value (Escherichia coli) read?
Answer: The value was “antimicrobial activity”.

Question: Which “antifungal activity” value (Saccharomyces cerevisiae) does the source give for `COc1cc(C(=O)O)ccc1O` [vanillic acid] here?
Answer: The value was “significant antifungal activities”.

Question: With `COc1cc(C=O)ccc1O` [vanillin] as the molecule, how does the “antimicrobial activity against Escherichia coli” value (Escherichia coli) read?
Answer: Its value is “antimicrobial activity”.

Question: Which “antifungal activity” value (Saccharomyces cerevisiae) does the source give for `COc1cc(CCC(C)=O)ccc1O` [vanillylacetone] here?
Answer: Its value is “significant antifungal activities”.

Question: With “LigD: S. paucimobilis C alpha-dehydrogenase, ligD gene product” as the molecule, how does the “enzyme activity shown by gene product” value [1] read?
Answer: The value was “Cα-dehydrogenase activity”.

B1: LigG: S. paucimobilis glutathione-eliminating glutathione S transferase, ligG gene product (protein)
chain: MSGASARSLGKGSAPPGPVPEGQIRVYSMRFCPFAQRTLMVLKAKGIRHEIININLKNKPEWFFEKNPFGLVPVLENTQGHLITESVITCEYLDEAYPEKKLFPDDPYEKACQKMTFELFSKVPSLVTSFIRAKRKEDHPGIKEELKKEFSKLEEAMANKRTAFFGGNSLSMIDYLIWPWFQRLEALELNECIDHTPKLKLWMATMQEDPVASSHFIDAKTYRDYLSLYLQDSPEACDYGL
Question: For B1, which “enzyme activity shown by gene product” value [1] is on record?
Answer: The value was “glutathione lyase activity”.

B2: LigF2: N. aromaticivorans beta-etherase polypeptide, glutathione S-transferase-like protein, GenBank ABD27301.1, SEQ ID NO:541 (protein)
chain: MALKYYHAEPLANSLKSMVPLKEKGLAYESIYVDLHKFEQHQPWFTAINPEGQVPVLDHDGTIITHTTVINEYLEDAFPDAQPADAPLRPRDPVGAARMRYWNKFIDEHVMNYVSMHGWHRMVGVIARNIASGDFEKLLESIPLPDQRKKWATARSGFSEADLANATAKIEYALDKVEKQLGETKWLAGDTYTLADINFYSHCGAMVERMFPEMEVARRAPRLCEWRDRVAARPAVAEALKSEDRTAPGLRVWSGEVR
Question: For B2, which “total activity (beta-etherase)” value [2] is on record?
Answer: Its value is 1206 rfu/ug.

Question: What about the “beta-etherase activity on the MUAV substrate (in words)” value (“beta-etherase activity … (in words)” for short) ([2]; MUAV substrate) of the same molecule?
Answer: Its value is “beta-etherase activity”.

Question: What about the “fold more efficient than S. paucimobilis LigF protein” value ([2]; MUAV substrate) of the same molecule?
Answer: Its value is “approximately 2 fold”.

B3: ligE1: N. aromaticivorans beta-etherase polypeptide, glutathione S-transferase-like protein, GenBank ABD26841.1, SEQ ID NO:101 (protein)
chain: MAANNTITFYDLALSTGATISPFVWATKYALKHKGFDLDVVPGGFTGILERTGGKTERLPAIVDDGEFVLDSWGIVEYLDAKYPDRPVLIPHESVAATLKALDNWFWNAAVGPWMFCFCQDYRDLSLPQDHEYVTHSREKMLGRKLEEVQAGREERLPKISAALEPLRAALAQHQWLGGSSPNYADYRIMGGILFTASVCKTPVLANDDPLRDWIERCLDLYGGLGRHPGLFPLFGLEQREGDPDLFNRAAGQGGIYKRNTGPESTRAETQRITEGMKK
Question: Which “total activity (beta-etherase)” value [2] does the source give for B3 here?
Answer: The value was 529 rfu/ug.

Question: And the “beta-etherase activity … (in words)” value ([2]; MUAV substrate)?
Answer: The value was “beta-etherase activity”.

Question: What about the “fold more efficient than S. paucimobilis ligE beta-etherase enzyme” value ([2]; MUAV substrate) of the same molecule?
Answer: Its value is “approximately 75 fold”.

B4: ABD27309.1: N. aromaticivorans putative beta-etherase polypeptide LigF-3, SEQ ID NO:545 (protein)
chain: MDEVSLYHWEPNANSGKPMLALMEKGVPFSSHYIDMLQFDQHKPEYLAINPQGTIPAMTHNGQVLTESTAIMEYVNDRFDGPDLMPADAQDRWRVRWWMKFMDQWLGPSFSMIGWSVFVGPMVRQRDPAELAAAIDRIPLPERRTAWRKAINGDFSESEMAESRRRVGLGIAKLEEELGKRPYVGSNQYSLADINIFNSTYSLPISQPDLAGKDRTPNIMRWLKRVYTREAVKKTWAMGKTDLAHRYGLIMAEIEG
Question: Which “beta-etherase activity … (in words)” value ([2]; MUAV substrate) does the source give for B4 here?
Answer: The value was “beta-etherase activity”.

B5: ABD26530.1: N. aromaticivorans putative beta-etherase polypeptide LigF-1, SEQ ID NO:539 (protein)
chain: MVIPLGEDNTIMLKLYSFGPAANSMKPLLTVFEKGLDVEKHRLDPAKFEHHTDWFKAINPRGQVPALVDGDKVVTESTVICEYLEDEYPTEVALRPADSFGKAQMRIWTKWVDEYFCWCVSTIGWHRYVGNMVKSLSDAEFEEKVKAIPVIEQQVKWRRAREGFPQDMLDEEMRKIAYSVRKLDDHLADHEWLVPGQYTLADICNFAIANGMQFGFAELVNKQDTPHLVRWIEQINERPAVKQMFAQVELEKLGPRE
Question: Which “beta-etherase activity … (in words)” value ([2]; MUAV substrate) does the source give for B5 here?
Answer: Its value is “beta-etherase activity”.

B6: ligE: S. paucimobilis beta-etherase, positive control, GenBank BAA02032.1, SEQ ID NO:1 (protein)
chain: MARNNTITLYDLQLESGCTISPYVWRTKYALKHKGFDIDIVPGGFTGILERTGGRSERVPVIVDDGEWVLDSWVIAEYLDEKYPDRPMLFEGPTQKNLMKFLDNWLWSTAVGPWFRCYILDYHDLSLPQDRDYVRWSREQWFLGGQRLEDVQAGREDRLPLVPPTLEPFRRILAETKWLGGDQPNFADYSALAVFLWTASVARTPPLTEDDPLRDWLDRGFDLFDGLGRHPGMNPLFGLKLREGDPEPFVRQTGPAGAGGQALNKGPQTTKMPPRVAEKAD
Question: For B6, which “total activity (beta-etherase)” value [2] is on record?
Answer: Its value is 7 rfu/ug.

Question: What about the “enzyme activity shown by gene product” value [1] of the same molecule?
Answer: Its value is “β-etherase activity”.
